Values belong to the compound of their own block, whether it stands above or below them.
What was measured:
murine Pgp = murine Pgp (Mus musculus, UniProt P21447); test: Intracellular accumulation of rhodamine 123 in Mdr1a-LLCPK1 cells (Pgp transport function); assay type: cell-based
Description: (§1) They are cultured for 48 hours at 37° C. to reach confluence in 1 ml of medium without G418. The medium is eliminated and the cells washed with 0.5 ml PBS 1×. […] The cells are lysed by the addition of 0.3 ml PBS 1×/0.5% sodium dodecyl sulphate (50/50, v/v) in each well. After 10 minutes at ambient temperature, 0.3 ml PBS 1× is added to each well then the total lysate (0.6 ml) is transferred to a 2-ml plastic tube and stored at −20° C. until it is analyzed by spectrofluorometry.
(§2) The results obtained were modelled according to the Hill model (Scientist software, Micromath research, Saint Louis, USA).

rat hepatocytes [1] = test: Intracellular quantity of 14C moxidectin in primary-cultured rat hepatocytes +/- fumagillin; assay type: cell-based
Description: The isolation and culturing of rat hepatocytes has been described previously (Dupuy et al., 2001b). The hepatocytes are distributed into culture dishes and kept at 37° C. for 12 hours (oven 5% CO2). The cells are cultured in the presence of 5 μM ^14C moxidectin (control) +/−100 μM fumagillin. After 0, 6, 24, 48 and 72 h the incubations are stopped (n=3 for each treatment), the media collected and the hepatocytes harvested by mechanical disassociation in phosphate buffer saline (PBS 1×). The media and the hepatocytes are stored at −20° C. until analysis by high-performance liquid chromatography (HPLC).
^14C moxidectin is quantified in the medium and the hepatocytes by a HPLC technique coupled with an in-line radioactivity detection (Dupuy et al., 2001b). This technique allows ^14C moxidectin and its main metabolite (C29 monohydroxyethyl moxidectin) in rat hepatocytes to be detected and quantified. The radioactivity is measured by liquid scintillation counting (Kontron Beta V counter). The total initial radioactivity of the initial medium at 5 μM ^14C moxidectin +/−100 μM fumagillin corresponds to the 100% value. Due to the concentration of moxidectin detected in the hepatocytes (ng.ml^−1) and to the initially introduced percentage of radioactivity, the time-concentration areas under the curve are calculated from the first to the last experimental point using the trapezoidal method (Gibaldi and Perrier, 1982).

murine Pgp (Mdr1a) = murine Pgp (Mdr1a) (Mus musculus, UniProt P21447); test: Intracellular accumulation of rhodamine 123 in Mdr1a-LLCPK1 cells (Pgp transport function); assay type: cell-based; conditions: mouse, probe rhodamine 123 (10 μM); Hill model; reached at 50 μM of fumagillin; read-out: maximum effect (Emax), Rho123 accumulation as percentage of the VSP effect
Chain of murine Pgp (Mdr1a) (P21447 whole entry): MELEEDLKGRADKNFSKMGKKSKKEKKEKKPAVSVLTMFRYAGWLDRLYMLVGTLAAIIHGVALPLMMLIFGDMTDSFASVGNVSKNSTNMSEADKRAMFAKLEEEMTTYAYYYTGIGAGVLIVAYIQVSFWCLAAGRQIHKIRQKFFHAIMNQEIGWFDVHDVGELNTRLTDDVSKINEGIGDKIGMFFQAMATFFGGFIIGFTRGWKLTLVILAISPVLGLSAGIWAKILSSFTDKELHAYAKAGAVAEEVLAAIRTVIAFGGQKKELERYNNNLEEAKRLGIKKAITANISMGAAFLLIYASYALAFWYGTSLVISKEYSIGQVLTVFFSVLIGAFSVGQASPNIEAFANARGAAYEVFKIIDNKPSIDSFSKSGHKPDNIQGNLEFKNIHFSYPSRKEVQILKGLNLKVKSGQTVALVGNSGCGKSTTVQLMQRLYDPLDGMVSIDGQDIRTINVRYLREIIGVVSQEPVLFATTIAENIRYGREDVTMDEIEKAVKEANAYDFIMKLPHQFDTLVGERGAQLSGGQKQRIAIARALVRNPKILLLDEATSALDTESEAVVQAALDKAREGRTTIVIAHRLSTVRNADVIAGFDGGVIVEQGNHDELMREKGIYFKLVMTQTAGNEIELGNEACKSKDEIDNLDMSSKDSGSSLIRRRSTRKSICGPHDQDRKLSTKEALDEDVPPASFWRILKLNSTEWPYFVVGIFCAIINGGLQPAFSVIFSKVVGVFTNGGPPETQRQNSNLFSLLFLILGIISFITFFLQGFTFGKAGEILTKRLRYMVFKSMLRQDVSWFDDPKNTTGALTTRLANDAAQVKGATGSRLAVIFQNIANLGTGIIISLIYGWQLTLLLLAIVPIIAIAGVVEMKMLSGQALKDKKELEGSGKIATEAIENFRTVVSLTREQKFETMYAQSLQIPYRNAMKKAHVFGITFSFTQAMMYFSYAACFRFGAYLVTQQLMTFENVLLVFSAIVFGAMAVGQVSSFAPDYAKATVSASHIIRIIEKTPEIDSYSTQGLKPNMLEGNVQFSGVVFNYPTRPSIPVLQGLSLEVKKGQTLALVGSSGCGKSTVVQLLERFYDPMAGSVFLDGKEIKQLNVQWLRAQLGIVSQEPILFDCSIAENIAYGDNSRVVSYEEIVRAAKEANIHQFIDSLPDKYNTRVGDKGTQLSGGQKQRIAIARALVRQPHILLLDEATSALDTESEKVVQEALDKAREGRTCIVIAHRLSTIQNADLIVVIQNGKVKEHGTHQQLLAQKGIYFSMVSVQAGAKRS
Description: as §1, §2

rat hepatocytes [2] = conditions: rat hepatocytes in primary culture; Dupuy et al., 2001b; 2003; cited from earlier work

Chain of murine Pgp (P21447 whole entry): as above

SMILES: CC[C@H](C)[C@H]1O[C@]2(CC[C@@H]1C)C[C@@H]1C[C@@H](C/C=C(\C)[C@@H](O[C@H]3C[C@H](OC)[C@@H](O[C@H]4C[C@H](OC)[C@@H](O)[C@H](C)O4)[C@H](C)O3)[C@@H](C)/C=C/C=C3\CO[C@@H]4[C@H](O)C(C)=C[C@@H](C(=O)O1)[C@]34O)O2 [IVM, ivermectin]
effect on Rho 123 accumulation relative to the effect of VSP (murine Pgp; 5 μM IVM, Mdr1a-LLCPK1 cells, 2 h, 10 μM Rho123): 95%

time of maximum quantity of intracellular moxidectin (rat hepatocytes [1]; rat): 6 h | quantity of 14C moxidectin in cultured rat hepatocytes (rat hepatocytes [1]; rat, 0 h, 5 μM): 4.5 ± 1.25 | quantity of 14C moxidectin in cultured rat hepatocytes (rat hepatocytes [1]; rat, 6 h, 5 μM): 72.95 ± 9.98 | main metabolite (C29 monohydroxyethyl) as share of the parent substance (rat hepatocytes [1]; rat, 24 h, 5 μM): ≤ 4% | quantity of 14C moxidectin in cultured rat hepatocytes (rat hepatocytes [1]; rat, 24 h, 5 μM): 52.60 ± 5.94 | quantity of 14C moxidectin in cultured rat hepatocytes (rat hepatocytes [1]; rat, 48 h, 5 μM): 22.19 ± 4.00 | quantity of 14C moxidectin in cultured rat hepatocytes (rat hepatocytes [1]; rat, 72 h, 5 μM): 11.98 ± 1.30
SMILES: CO/N=C1\C[C@]2(C[C@@H]3C[C@@H](C/C=C(\C)C[C@@H](C)/C=C/C=C4\CO[C@@H]5[C@H](O)C(C)=C[C@@H](C(=O)O3)[C@]45O)O2)O[C@H](/C(C)=C/C(C)C)[C@H]1C [Moxidectin, moxidectin]

Rho 123 accumulation, maximum value taken as reference (murine Pgp; VSP 10 μM, considered to be the maximum value by definition): 100%
SMILES: C/C=C/C[C@@H](C)C(=O)[C@H]1C(=O)N[C@@H](C(C)C)C(=O)N(C)CC(=O)N(C)[C@@H](CC(C)C)C(=O)N[C@@H](C(C)C)C(=O)N(C)[C@@H](CC(C)C)C(=O)N[C@@H](C)C(=O)N[C@H](C)C(=O)N(C)[C@@H](CC(C)C)C(=O)N(C)[C@@H](CC(C)C)C(=O)N(C)[C@@H](C(C)C)C(=O)N1C [VSP, Valspodar]

SMILES: CO[C@@H]1[C@H](OC(=O)/C=C/C=C/C=C/C=C/C(=O)O)CC[C@]2(CO2)[C@H]1[C@@]1(C)O[C@@H]1CC=C(C)C [fumagillin]
EC50 (murine Pgp; Rho123 accumulation in Mdr1a-LLCPK1, Hill model, read-out: EC50, concentration necessary to reach 50% of the maximum effect): 10 µM | effect on the quantity of intracellular Rho 123 (murine Pgp; fumagillin 10 to 100 μM): increased | Emax at 2 h, 50 μM (murine Pgp (Mdr1a)): 43.7% | increase of the quantity of moxidectin in the hepatocytes (time-concentration area under the curve) (rat hepatocytes [1]; 100 μM fumagillin with 5 μM 14C moxidectin, over a period of 72 h, versus moxidectin control): 65%

SMILES: CC(=O)N1CCN(c2ccc(OCC3COC(Cn4ccnc4)(c4ccc(Cl)cc4Cl)O3)cc2)CC1 (stereo not drawn) [ketoconazole]
effect on the quantity of 14C moxidectin in the hepatocytes of rats (rat hepatocytes [2]): significantly increases

SMILES: O=c1c(O)c(-c2ccc(O)c(O)c2)oc2cc(O)cc(O)c12 [quercetin]
effect on the quantity of 14C moxidectin in the hepatocytes of rats (rat hepatocytes [2]): significantly increases

Source: US20110144045A1, “USE OF FUMAGILLIN AND THE DERIVATIVES THEREOF TO INCREASE THE BIOAVAILABILITY OF THE MACROCYCLIC LACTONES” (INSTITUT NATIONAL DE LA RECHERCHE AGRONOMIQUE, priority 2005, published 2011)
